The values below come from patent publication US20250276983A1, “COMPOUNDS AND METHODS FOR MODULATING HER2” (IAMBIC THERAPEUTICS, INC., priority 2022, published 2025).

One assay has as its target wtERBB2 (Homo sapiens (Human), UniProt P04626). Kind of assay: HotSpot radiometric kinase activity assay, wtERBB2. The assay is classed as biochemical. To be noted: 30 nM wtERBB2, 10 μM 33P-ATP, 20 min preincubation, 2 hours, read-out: HER2 WT IC50. The protocol:
The purpose of the wtERBB2, ERBB2-A775_G776insYVMA (ERBB2YVMA), wtEGFR biochemical assay was to evaluate the inhibition (% inhibition and IC50 values) of the small molecule inhibitors by using the “HotSpot” radiometric kinase activity assay. HotSpot assays monitor the […] of kinase substrate by the radioactive gamma phosphate of adenosine triphosphate (33P-ATP) during biochemical reactions. HotSpot assays was performed in steps upon completion of the kinase reaction: deposition of a reaction mixture aliquot onto P81 ion exchange paper, extensive washing of the aforementioned P81 paper using phosphoric acid to remove unbound radiolabeled 33P-ATP from the P81 paper, and finally visualization and quantification of the dried P81 paper utilizing a phosphoimager. […] Typical reaction solutions (10 μL final reaction volume) contained the following buffer conditions: 20 mM Hepes (pH 7.5), 10 mM MgCl2, 1 mM EGTA, 0.01% Brij35, 0.02 mg/mL BSA, 0.1 mM Na3VO4, 2 mM DTT, 1% DMSO. The assay was primed by preparing a fresh 0.2 mg/mL solution of pEY (Sigma Cat: P7244) substrate in the reaction buffer and supplementing that solution with […] of MnCl2 as substrate cofactor (Sigma Cat: M9522). The kinase of interest was then added to the solution at the appropriate concentration (30 nM wtERBB2 from, or 20 nM ERBB2YVMA, or 4 nM wtEGFR) and gently mixed prior to delivery of compound in 100% DMSO by acoustic dispensing (Beckman Echo550). Compound, Kinase, and substrate were allowed to incubate for 20 min at room temperature prior to the initiation of the reaction by addition of 33P-ATP (PerkinElmer Cat: NEG602, final conc 10 μM). […] IC50 determinations were made from a plot of kinase activity as a function of inhibitor concentration fit to the 4-parameter IC50 equation with the enzyme concentration held constant using GraphPad Prism (San Diego).

The test system of another assay is BaF3_HER2YVMA cells. Kind of assay: Cell growth inhibition assay, BaF3_HER2YVMA. The assay is classed as cell-based. The conditions noted are these: 72 h, BaF3_HER2YVMA cells, 3 days treatment, CellTiterGlo 2.0; read-out: HER2-YVMA IC50 (nM), cell growth inhibition. Background: ATP-based viability assays read luminescence as a measure of living cells.
The test system of the next assay is BaF3_EGFRWT cells. In words: Cell growth inhibition assay, BaF3_EGFRWT. Format: cell-based. The conditions noted are these: 72 h, 80 ng/mL recombinant human EGF, 3 days treatment, CellTiterGlo 2.0, read-out: EGFR WT IC50 (nM), cell growth inhibition.
A further assay has as its system BaF3_HER2WT cells. Kind of assay: Cell growth inhibition assay, BaF3_HER2WT. The assay is classed as cell-based. The conditions noted are these: 72 h, 3 days treatment, CellTiterGlo 2.0, read-out: HER2 WT IC50 (nM), cell growth inhibition.

Structures are written as SMILES. Some results are limits rather than exact numbers.

In general, IC50 refers to the midpoint of a concentration-inhibition curve.

Sequence of wtERBB2 (P04626 23-1255): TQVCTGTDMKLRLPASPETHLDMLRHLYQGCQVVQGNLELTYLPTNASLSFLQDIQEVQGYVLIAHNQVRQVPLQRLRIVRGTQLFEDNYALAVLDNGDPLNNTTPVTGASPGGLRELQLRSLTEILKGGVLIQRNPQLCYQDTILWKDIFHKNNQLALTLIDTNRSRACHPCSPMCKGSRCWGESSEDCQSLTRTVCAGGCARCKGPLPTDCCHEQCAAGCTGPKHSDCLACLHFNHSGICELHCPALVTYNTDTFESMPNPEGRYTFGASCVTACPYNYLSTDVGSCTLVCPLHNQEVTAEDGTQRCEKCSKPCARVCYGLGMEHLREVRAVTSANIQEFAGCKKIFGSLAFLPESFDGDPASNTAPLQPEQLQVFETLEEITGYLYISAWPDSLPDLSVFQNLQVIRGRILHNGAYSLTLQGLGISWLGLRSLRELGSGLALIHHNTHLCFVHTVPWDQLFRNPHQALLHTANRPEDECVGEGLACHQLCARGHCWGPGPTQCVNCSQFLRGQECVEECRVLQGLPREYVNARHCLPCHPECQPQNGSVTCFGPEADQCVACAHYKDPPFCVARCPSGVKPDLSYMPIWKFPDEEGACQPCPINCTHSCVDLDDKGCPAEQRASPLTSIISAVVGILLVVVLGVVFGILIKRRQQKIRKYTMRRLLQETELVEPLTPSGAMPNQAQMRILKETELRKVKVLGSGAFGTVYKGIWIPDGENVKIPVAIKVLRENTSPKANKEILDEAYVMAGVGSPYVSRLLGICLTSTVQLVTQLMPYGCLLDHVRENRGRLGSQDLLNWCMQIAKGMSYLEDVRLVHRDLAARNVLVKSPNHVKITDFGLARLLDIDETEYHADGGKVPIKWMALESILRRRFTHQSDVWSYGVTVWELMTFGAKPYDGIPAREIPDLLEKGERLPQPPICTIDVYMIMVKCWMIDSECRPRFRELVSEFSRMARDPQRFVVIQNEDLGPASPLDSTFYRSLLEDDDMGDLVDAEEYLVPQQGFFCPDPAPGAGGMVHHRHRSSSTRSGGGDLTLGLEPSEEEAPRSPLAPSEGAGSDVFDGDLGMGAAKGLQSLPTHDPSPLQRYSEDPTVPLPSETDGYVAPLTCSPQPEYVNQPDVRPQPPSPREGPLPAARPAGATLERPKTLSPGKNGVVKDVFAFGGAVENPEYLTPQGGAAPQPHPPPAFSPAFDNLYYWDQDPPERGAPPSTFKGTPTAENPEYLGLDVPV

On to `Cc1cc(Nc2ncnn3ccc([C@@H]4CCCN(C(=O)/C=C/CN(C)C)C4)c23)ccc1Oc1ccn2ncnc2c1` (single isomer, unassigned) [Example 107], for which the IC50 on wtERBB2 is less than 0.2 µM.

As to `C=CC(=O)NC1CCN(C(=O)c2ccn3ncnc(Nc4ccc(Oc5ccn6ncnc6c5)c(C)c4)c23)CC1` [Example 5, N-(1-(4-((4-([1,2,4]triazolo[1,5-a]pyridin-7-yloxy)-3-methylphenyl)amino)pyrrolo[2,1-f][1,2,4]triazine-5-carbonyl)piperidin-4-yl)acrylamide], the IC50 is 200 to 500 nM with BaF3_HER2YVMA cells, 1500 to 5000 nM in the assay on BaF3_EGFRWT cells, less than 200 nM in the assay on BaF3_HER2WT cells and less than 0.2 µM on wtERBB2.

`C=CC(=O)N1CCC(c2ccn3ncnc(Nc4ccc(Oc5ccn6ncnc6c5)c(C)c4)c23)C1` (centres unmarked) [Example 11, 1-(3-(4-((4-([1,2,4]triazolo[1,5-a]pyridin-7-yloxy)-3-methylphenyl)amino)pyrrolo[2,1-f][1,2,4]triazin-5-yl)pyrrolidin-1-yl)prop-2-en-1-one]: the half-inhibitory concentration (IC50) with BaF3_HER2YVMA cells was less than 200 nM; in the assay with BaF3_EGFRWT cells it was 1500 to 5000 nM; in the assay with BaF3_HER2WT cells, less than 200 nM; on wtERBB2 it was less than 0.2 µM.

As to `C=CC(=O)NCCn1cc(-c2ccn3ncnc(Nc4ccc(Oc5ccn6ncnc6c5)c(C)c4)c23)cn1` [Example 13, N-(2-(4-(4-((4-([1,2,4]triazolo[1,5-a]pyridin-7-yloxy)-3-methylphenyl)amino)pyrrolo[2,1-f][1,2,4]triazin-5-yl)-1H-pyrazol-1-yl)ethyl)acrylamide], the IC50 with BaF3_HER2YVMA cells was 200 to 500 nM; in the assay on BaF3_EGFRWT cells it was 1500 to 5000 nM; with BaF3_HER2WT cells, less than 200 nM; at wtERBB2 it was less than 0.2 µM.

As to `C=CC(=O)NC1CN(c2ccn3ncnc(Nc4ccc(Oc5ccn6ncnc6c5)c(C)c4)c23)C1` [Example 14, N-(1-(4-((4-([1,2,4]triazolo[1,5-a]pyridin-7-yloxy)-3-methylphenyl)amino)pyrrolo[2,1-f][1,2,4]triazin-5-yl)azetidin-3-yl)acrylamide], the IC50 in the assay with BaF3_HER2YVMA cells is less than 200 nM; in the assay on BaF3_EGFRWT cells, 1500 to 5000 nM; in the assay with BaF3_HER2WT cells, less than 200 nM; at wtERBB2, less than 0.2 µM.

Consider `C=CC(=O)N1CC2(C1)CN(c1ccn3ncnc(Nc4ccc(Oc5ccn6ncnc6c5)c(C)c4)c13)C2` [Example 16, 1-(6-(4-((4-([1,2,4]triazolo[1,5-a]pyridin-7-yloxy)-3-methylphenyl)amino)pyrrolo[2,1-f][1,2,4]triazin-5-yl)-2,6-diazaspiro[3.3]heptan-2-yl)prop-2-en-1-one], for which the concentration for half-maximal inhibition (IC50) was 500 to 1500 nM in the assay with BaF3_HER2YVMA cells, 1500 to 5000 nM with BaF3_EGFRWT cells, 200 to 500 nM in the assay on BaF3_HER2WT cells and less than 0.2 µM on wtERBB2.

Consider `C=C(F)C(=O)NC1CN(c2ccn3ncnc(Nc4ccc(Oc5ccn6ncnc6c5)c(C)c4)c23)C1` [Example 18, N-(1-(4-((4-([1,2,4]triazolo[1,5-a]pyridin-7-yloxy)-3-methylphenyl)amino)pyrrolo[2,1-f][1,2,4]triazin-5-yl)azetidin-3-yl)-2-fluoroacrylamide], for which the half-maximal inhibitory concentration (IC50) was 500 to 1500 nM with BaF3_HER2YVMA cells, 1500 to 5000 nM in the assay with BaF3_EGFRWT cells, 200 to 500 nM in the assay with BaF3_HER2WT cells and less than 0.2 µM on wtERBB2.

In the case of `C=C(F)C(=O)N1CC(n2cc(-c3ccn4ncnc(Nc5ccc(Oc6ccn7ncnc7c6)c(C)c5)c34)cn2)C1` [Example 19, 1-(3-(4-(4-((4-([1,2,4]triazolo[1,5-a]pyridin-7-yloxy)-3-methylphenyl)amino)pyrrolo[2,1-f][1,2,4]triazin-5-yl)-1H-pyrazol-1-yl)azetidin-1-yl)-2-fluoroprop-2-en-1-one], the half-maximal inhibitory concentration (IC50) is 500 to 1500 nM with BaF3_HER2YVMA cells, 1500 to 5000 nM with BaF3_EGFRWT cells, 200 to 500 nM with BaF3_HER2WT cells and less than 0.2 µM at wtERBB2.

In the case of `Cc1cc(Nc2ncnn3ccc(N4CCN(C(=O)/C=C/CN(C)C)CC4)c23)ccc1Oc1ccn2ncnc2c1` [Example 22, (E)-1-(4-(4-((4-([1,2,4]triazolo[1,5-a]pyridin-7-yloxy)-3-methylphenyl)amino)pyrrolo[2,1-f][1,2,4]triazin-5-yl)piperazin-1-yl)-4-(dimethylamino)but-2-en-1-one], the half-maximal inhibitory concentration (IC50) was less than 200 nM in the assay with BaF3_HER2YVMA cells, 1500 to 5000 nM in the assay on BaF3_EGFRWT cells, less than 200 nM in the assay on BaF3_HER2WT cells and less than 0.2 µM on wtERBB2.

`Cc1cc(Nc2ncnn3ccc(C4CCN(C(=O)CCCN(C)C)CC4)c23)ccc1Oc1ccn2ncnc2c1` [Example 23, 1-(4-(4-((4-([1,2,4]triazolo[1,5-a]pyridin-7-yloxy)-3-methylphenyl)amino)pyrrolo[2,1-f][1,2,4]triazin-5-yl)piperidin-1-yl)-4-(dimethylamino)butan-1-one]: the IC50 was 1500 to 5000 nM in the assay with BaF3_HER2YVMA cells, 1500 to 5000 nM with BaF3_EGFRWT cells, 500 to 1500 nM in the assay on BaF3_HER2WT cells and less than 0.2 µM on wtERBB2.

Regarding `Cc1cc(Nc2ncnn3ccc(C4CN(C(=O)/C=C/CN)C4)c23)ccc1Oc1ccn2ncnc2c1` [Example 87, (E)-1-(3-(4-((4-([1,2,4]triazolo[1,5-a]pyridin-7-yloxy)-3-methylphenyl)amino)pyrrolo[2,1-f][1,2,4]triazin-5-yl)azetidin-1-yl)-4-aminobut-2-en-1-one], the 50% inhibitory concentration (IC50) is 1500 to 5000 nM in the assay on BaF3_HER2YVMA cells, 1500 to 5000 nM with BaF3_EGFRWT cells, 1500 to 5000 nM with BaF3_HER2WT cells and less than 0.2 µM at wtERBB2.

Take `Cc1cc(Nc2ncnn3ccc(C4CN(C(=O)/C=C/CN5CC(F)(F)C5)C4)c23)ccc1Oc1ccn2ncnc2c1` [Example 91, (E)-1-(3-(4-((4-([1,2,4]triazolo[1,5-a]pyridin-7-yloxy)-3-methylphenyl)amino)pyrrolo[2,1-f][1,2,4]-triazin-5-yl)azetidin-1-yl)-4-(3,3-difluoroazetidin-1-yl)but-2-en-1-one]: the IC50 in the assay on BaF3_HER2YVMA cells was 500 to 1500 nM; with BaF3_EGFRWT cells, 1500 to 5000 nM; with BaF3_HER2WT cells, less than 200 nM; at wtERBB2, less than 0.2 µM.

Consider `Cc1cc(Nc2ncnn3ccc(C4CCCN(C(=O)/C=C/CN(C)C)CC4)c23)ccc1Oc1ccn2ncnc2c1` (centres unmarked) [Example 93, (E)-1-(4-(4-((4-([1,2,4]triazolo[1,5-a]pyridin-7-yloxy)-3-methylphenyl)amino)pyrrolo[2,1-f][1,2,4]triazin-5-yl)azepan-1-yl)-4-(dimethylamino)but-2-en-1-one], for which the IC50 was less than 200 nM in the assay on BaF3_HER2YVMA cells, 1500 to 5000 nM in the assay on BaF3_EGFRWT cells, less than 200 nM with BaF3_HER2WT cells and less than 0.2 µM on wtERBB2.

Turning to `Cc1cc(Nc2ncnn3ccc(C4CC5(C4)CN(C(=O)/C=C/CN(C)C)C5)c23)ccc1Oc1ccn2ncnc2c1` [Example 95, (E)-1-(6-(4-((4-([1,2,4]triazolo[1,5-a]pyridin-7-yloxy)-3-methylphenyl)amino)pyrrolo[2,1-f][1,2,4]triazin-5-yl)-2-azaspiro[3.3]heptan-2-yl)-4-(dimethylamino)but-2-en-1-one], the IC50 was 500 to 1500 nM with BaF3_HER2YVMA cells, 1500 to 5000 nM with BaF3_EGFRWT cells, 200 to 500 nM with BaF3_HER2WT cells and less than 0.2 µM on wtERBB2.

With `Cc1cc(Nc2ncnn3ccc([C@H]4CCN(C(=O)/C=C/CN(C)C)C4)c23)ccc1Oc1ccn2ncnc2c1` [Example 100, (R,E)-1-(3-(4-((4-([1,2,4]triazolo[1,5-a]pyridin-7-yloxy)-3-methylphenyl)amino)-pyrrolo[2,1-f]1,2,4-triazin-5-yl)pyrrolidin-1-yl)-4-(dimethylamino)but-2-en-1-one], the IC50 on wtERBB2 was less than 0.2 µM.

For `Cc1cc(Nc2ncnn3ccc([C@H]4CCCN(C(=O)/C=C/CN(C)C)C4)c23)ccc1Oc1ccn2ncnc2c1` [Example 108, (R,E)-1-(3-(4-((4-([1,2,4]triazolo[1,5-a]pyridin-7-yloxy)-3-methylphenyl)amino)-pyrrolo[2,1-f][1,2,4]-triazin-5-yl)piperidin-1-yl)-4-(dimethylamino)but-2-en-1-one], the concentration for half-maximal inhibition (IC50) on wtERBB2 was less than 0.2 µM.

Turning to `Cc1cc(Nc2ncnn3ccc([C@H]4CCCN(C(=O)/C=C/CN(C)C)CC4)c23)ccc1Oc1ccn2ncnc2c1` [Example 110, (S,E)-1-(4-(4-((4-([1,2,4]triazolo[1,5-a]pyridin-7-yloxy)-3-methylphenyl)amino)pyrrolo[2,1-f][1,2,4]triazin-5-yl)azepan-1-yl)-4-(dimethylamino)but-2-en-1-one], the half-maximal inhibitory concentration (IC50) on wtERBB2 was less than 0.2 µM.
